pIC50: −log10 of the molar value.
Target: T1, rat NaPi-2b (Rattus norvegicus, UniProt Q9JJ09)
T1 construct: expressed in transfected cells; host or cells: Xenopus oocytes injected with cRNA
T1 sequence (Q9JJ09 1-695): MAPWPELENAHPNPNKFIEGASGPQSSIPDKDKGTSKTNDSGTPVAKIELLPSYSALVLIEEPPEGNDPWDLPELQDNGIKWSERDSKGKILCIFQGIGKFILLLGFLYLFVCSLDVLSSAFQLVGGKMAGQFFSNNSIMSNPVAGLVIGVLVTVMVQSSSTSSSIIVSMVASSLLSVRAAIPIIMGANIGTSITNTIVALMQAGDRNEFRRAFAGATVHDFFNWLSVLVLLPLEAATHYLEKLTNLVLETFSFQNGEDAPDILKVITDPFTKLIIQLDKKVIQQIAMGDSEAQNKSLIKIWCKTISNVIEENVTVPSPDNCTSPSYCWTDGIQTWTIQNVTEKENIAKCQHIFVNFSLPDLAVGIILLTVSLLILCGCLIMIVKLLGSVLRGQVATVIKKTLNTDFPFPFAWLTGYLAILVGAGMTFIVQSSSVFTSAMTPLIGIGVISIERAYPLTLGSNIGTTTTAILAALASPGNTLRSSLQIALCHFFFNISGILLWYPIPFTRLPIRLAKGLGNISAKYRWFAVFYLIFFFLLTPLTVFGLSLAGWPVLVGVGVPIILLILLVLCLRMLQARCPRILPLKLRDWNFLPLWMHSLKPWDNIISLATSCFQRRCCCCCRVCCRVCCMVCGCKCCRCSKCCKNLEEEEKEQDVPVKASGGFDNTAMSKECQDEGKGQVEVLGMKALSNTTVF
Experiment: Sodium-dependent phosphate uptake of Xenopus oocytes which expressed NaPi-2b (32P)
Format: cell-based
Details: for inhibition at 300 µM: phosphate uptake, oocytes expressing rat NaPi-2b, determined from inhibition curve; for pIC50: Xenopus oocytes expressing rat NaPi-2b, 32P radioactive phosphorus, read-out: IC50 (phosphate uptake inhibitory activity)
In short: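 Oocytes injected with rat NaPi-2b cRNA, cultured 2 d, then 32P uptake measured with compound. Values: % inhibition at 300 and 100 μM, both from one inhibition curve.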

SMILES | inhibition at 300 µM [%] | pIC50
CN(CCCNCc1ccc(C(=O)Nc2ccc(Br)cc2C(=O)N/N=C/c2ccc(Cl)c(C(F)(F)F)c2)cc1)c1ccccc1 [Compound 761, N-[4-Bromo-2-(4-chloro-3-trifluoromethyl-benzylidene-hydrazinocarbonyl)-phenyl]-4-{[3-(methyl-phenyl-amino)-propylamino]-methyl}-benzamide] | 46.2 | –
Cn1cccc1/C=N/NC(=O)c1cc(Cl)ccc1NC(=O)c1cccnc1 [Compound 212, N-[4-Chloro-2-(1-methyl-1H-pyrrol-2-ylmethylene-hydrazinocarbonyl)-phenyl]-nicotinamide] | – | 4.15
O=C(Nc1cscc1C(=O)N/N=C/c1cccc(F)c1)c1cccc(CN2CCN(CCO)CC2)c1 [Compound 980, N-[4-(3-Fluoro-benzylidene-hydrazinocarbonyl)-thiophen-3-yl]-3-[4-(2-hydroxy-ethyl)-piperazin-1-ylmethyl]-benzamide] | – | 4.86
COc1ccc(/C=N/NC(=O)c2c(C)csc2NC(=O)c2cccc(CSCCCO)c2)cc1 [Compound 562, 3-(3-Hydroxy-propylsulfanylmethyl)-N-[3-(4-methoxy-benzylidene-hydrazinocarbonyl)-4-methyl-thiophen-2-yl]-benzamide] | – | > 6.00
COc1cccc(/C=N/NC(=O)c2cc(I)ccc2NC(=O)c2cccc(CN3CCC(N4CCCCC4)CC3)c2)c1 [Compound 488, 3-[1,4′]Bipiperidinyl-1′-ylmethyl-N-[4-iodo-2-(3-methoxy-benzylidene-hydrazinocarbonyl)-phenyl]-benzamide] | – | > 5.52
Cc1ccc(/C=N/NC(=O)c2cc(Cl)ccc2NC(=O)c2cccnc2)cc1C [Compound 188, N-[4-Chloro-2-(3,4-dimethyl-benzylidene-hydrazinocarbonyl)-phenyl]-nicotinamide] | – | 4.71
Cc1ccc(/C=N/NC(=O)c2c(C)csc2NC(=O)c2cccc(CN(CC(C)O)CC(C)O)c2)cc1C (stereo not drawn) [Compound 587, 3-{[Bis-(2-hydroxy-propyl)-amino]-methyl}-N-[3-(3,4-dimethyl-benzylidene-hydrazinocarbonyl)-4-methyl-thiophen-2-yl]-benzamide] | – | > 5.52
CN(Cc1ccc(C(=O)Nc2ccc(Br)cc2C(=O)N/N=C/c2cccc(F)c2)cc1)CC(O)c1ccc(O)cc1 (stereo not drawn) [Compound 725, N-[4-Bromo-2-(3-fluoro-benzylidene-hydrazinocarbonyl)-phenyl]-4-({[2-hydroxy-2-(4-hydroxy-phenyl)-ethyl]-methyl-amino}-methyl)-benzamide] | – | 4.16
COc1cc(OC)cc(C(=O)Nc2ccc(Br)cc2C(=O)N/N=C/c2ccc(Cl)cc2)c1 [Compound 117, N-[4-Bromo-2-(4-chloro-benzylidene-hydrazinocarbonyl)-phenyl]-3,5-dimethoxy-benzamide] | – | 6.24
CN(CCO)Cc1ccc(C(=O)Nc2ccc(Cl)cc2C(=O)N/N=C/c2cccc(F)c2)cc1 [Compound 412, N-[4-Chloro-2-(3-fluoro-benzylidene-hydrazinocarbonyl)-phenyl]-4-{[(2-hydroxy-ethyl)-methyl-amino]-methyl}-benzamide] | – | 5.10
O=C(Nc1ccccc1C(=O)N/N=C/c1ccc(Cl)c(C(F)(F)F)c1)c1ccccn1 [Compound 508, Pyridin-2-carboxylic acid [2-(4-chloro-3-trifluoromethyl-benzylidene-hydrazinocarbonyl)-phenyl]-amide] | – | 6.32
COc1ccc(C(=O)Nc2ccc(Cl)cc2C(=O)N/N=C/c2cccc(C)c2)cc1OC [Compound 67, N-[4-Chloro-2-(3-methyl-benzylidene-hydrazinocarbonyl)-phenyl]-3,4-dimethoxy-benzamide] | – | 6.19
O=C(Nc1cscc1C(=O)N/N=C/c1ccc(Cl)c(C(F)(F)F)c1)c1cccc(CN2CCN(CCO)CC2)c1 [Compound 983, N-[4-(4-Chloro-3-trifluoromethyl-benzylidene-hydrazinocarbonyl)-thiophen-3-yl]-3-[4-(2-hydroxy-ethyl)-piperazin-1-ylmethyl]-benzamide] | – | 5.08
COc1ccccc1/C=C/C=N/NC(=O)c1cc(Br)ccc1NC(=O)c1cccnc1 [Compound 352, N-{4-Bromo-2-[3-(2-methoxy-phenyl)-allylidene-hydrazinocarbonyl]-phenyl}-nicotinamide] | – | 4.89

The next lines start with the values.

inhibition at 300 µM [%] | pIC50 | SMILES
– | 4.51 | COc1cc(/C=N/NC(=O)c2cc(N3CCOCC3)ccc2NC(=O)c2ccc(OC)c(OC)c2)ccc1O [Compound 940, N-[2-(4-Hydroxy-3-methoxy-benzylidene-hydrazinocarbonyl)-4-morpholin-4-yl-phenyl]-3,4-dimethoxy-benzamide]
– | 5.35 | Cc1ccc(/C=N/NC(=O)c2ccccc2NC(=O)c2ccncc2)cc1C [Compound 138, N-[2-(3,4-Dimethyl-benzylidene-hydrazinocarbonyl)-phenyl]-isonicotinamide]
78.9 | – | O=C(Nc1ccc(Cl)cc1C(=O)N/N=C/c1ccc(F)cc1)c1cccc(CN(CCO)CCO)c1 [Compound 550, 3-{[Bis-(2-hydroxy-ethyl)-amino]-methyl}-N-[4-chloro-2-(4-fluoro-benzylidene-hydrazinocarbonyl)-phenyl]-benzamide]
– | 4.78 | CC(O)CN(Cc1cccc(C(=O)Nc2ccc(Cl)cc2C(=O)N/N=C/c2ccc(OCCCN(C)C)cc2)c1)CC(C)O (stereo not drawn) [Compound 998, 3-{[Bis-(2-hydroxy-propyl)-amino]-methyl}-N-{4-chloro-2-[4-(3-dimethylamino-propoxy)-benzylidene-hydrazinocarbonyl]-phenyl}-benzamide]
– | 4.74 | CCOCCN(CCOCC)Cc1ccc(C(=O)Nc2ccc(Br)cc2C(=O)N/N=C/c2cccc(C)c2)cc1 [Compound 735, 4-{[Bis-(2-ethoxy-ethyl)-amino]-methyl}-N-[4-bromo-2-(3-methyl-benzylidene-hydrazinocarbonyl)-phenyl]-benzamide]
– | 5.00 | O=C(Nc1ccc(Cl)cc1C(=O)N/N=C/c1ccc(O)cc1)c1cccc(CN(CCO)CCO)c1 [Compound 411, 3-{[Bis-(2-hydroxy-ethyl)-amino]-methyl}-N-[4-chloro-2-(4-hydroxy-benzylidene-hydrazinocarbonyl)-phenyl]-benzamide]
– | 4.82 | O=C(Nc1ccc(Br)cc1C(=O)N/N=C/c1cccc(F)c1)c1ccc(CNCCCN(CCO)CCO)cc1 [Compound 301, 4-({3-[Bis-(2-hydroxy-ethyl)-amino]-propylamino}-methyl)-N-[4-bromo-2-(3-fluoro-benzylidene-hydrazinocarbonyl)-phenyl]-benzamide]
– | 5.83 | Cc1csc(NC(=O)c2cccc(CN3CCC(O)CC3)c2)c1C(=O)N/N=C/c1ccc(Cl)c(C(F)(F)F)c1 [Compound 597, N-[3-(4-Chloro-3-trifluoromethyl-benzylidene-hydrazinocarbonyl)-4-methyl-thiophen-2-yl]-3-(4-hydroxy-piperidin-1-ylmethyl)-benzamide]
– | > 6.00 | COc1ccc(/C=N/NC(=O)c2cc(N3CCCCC3)ccc2NC(=O)c2cccc(CN(CC(C)O)CC(C)O)c2)cc1 (stereo not drawn) [Compound 958, 3-{[Bis-(2-hydroxy-propyl)-amino]-methyl}-N-[2-(4-methoxy-benzylidene-hydrazinocarbonyl)-4-piperidin-1-yl-phenyl]-benzamide]
– | 5.41 | COc1ccc(C(=O)Nc2ccc(Cl)cc2C(=O)N/N=C/c2cccc(O)c2)cc1OC [Compound 69, N-[4-Chloro-2-(3-hydroxy-benzylidene-hydrazinocarbonyl)-phenyl]-3,4-dimethoxy-benzamide]
